Type in all cases: cell-based
For assay [1], the target named is T1, human muscarinic M1 receptor (Homo sapiens, UniProt P11229).
T1 construct: expressed in transfected cells
T1 sequence (P11229 1-460): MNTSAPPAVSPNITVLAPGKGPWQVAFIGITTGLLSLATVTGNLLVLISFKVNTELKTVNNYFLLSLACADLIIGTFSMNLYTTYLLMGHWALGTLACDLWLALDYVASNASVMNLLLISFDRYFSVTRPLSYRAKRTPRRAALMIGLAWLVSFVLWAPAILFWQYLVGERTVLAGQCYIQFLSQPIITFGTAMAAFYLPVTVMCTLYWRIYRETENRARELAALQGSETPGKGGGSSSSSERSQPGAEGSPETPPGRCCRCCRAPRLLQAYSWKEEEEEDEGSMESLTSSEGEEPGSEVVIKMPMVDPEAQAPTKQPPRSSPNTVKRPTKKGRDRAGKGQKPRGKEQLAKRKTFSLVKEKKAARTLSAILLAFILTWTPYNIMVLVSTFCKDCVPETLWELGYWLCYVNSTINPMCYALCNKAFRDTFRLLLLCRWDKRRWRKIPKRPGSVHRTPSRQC
As to the kind of experiment: Alphascreen Surefire phospho-ERK1/2 functional assay, M1. Conditions: for EC50: CHO cells stably expressing human M1, phospho-ERK1/2, read-out: pEC50 M1 (converted); for Emax: CHO. The method, then:
(§1) ERK1/2 phosphorylation is a downstream consequence of both Gq/11 and Gi/o protein coupled receptor activation, making it highly suitable for the assessment of M1, M3 (Gq/11 coupled) and M2, M4 receptors (Gi/o coupled), rather than using different assay formats for different receptor subtypes. CHO cells stably expressing the human muscarinic M1, M2, M3 or M4 receptor were plated (25K/well) onto 96-well tissue culture plates in MEM-alpha+10% dialysed FBS. Once adhered, cells were serum-starved overnight. Agonist stimulation was performed by the addition of 5 μL agonist to the cells for 5 min (37° C.). Media was removed and 50 μL of lysis buffer added. After 15 min, a 4 μL sample was transferred to 384-well plate and 7 μL of detection mixture added. Plates were incubated for 2 h with gentle agitation in the dark and then read on a PHERAstar plate reader.
(§2) pEC50 and Emax figures were calculated from the resulting data for each receptor subtype.
On the technique in general: Alpha assays give light when donor and acceptor beads are brought close together.

In assay [2] the target is T2, human muscarinic M2 receptor (Homo sapiens, UniProt P08172).
T2 construct: expressed in transfected cells
T2 sequence (P08172 1-466): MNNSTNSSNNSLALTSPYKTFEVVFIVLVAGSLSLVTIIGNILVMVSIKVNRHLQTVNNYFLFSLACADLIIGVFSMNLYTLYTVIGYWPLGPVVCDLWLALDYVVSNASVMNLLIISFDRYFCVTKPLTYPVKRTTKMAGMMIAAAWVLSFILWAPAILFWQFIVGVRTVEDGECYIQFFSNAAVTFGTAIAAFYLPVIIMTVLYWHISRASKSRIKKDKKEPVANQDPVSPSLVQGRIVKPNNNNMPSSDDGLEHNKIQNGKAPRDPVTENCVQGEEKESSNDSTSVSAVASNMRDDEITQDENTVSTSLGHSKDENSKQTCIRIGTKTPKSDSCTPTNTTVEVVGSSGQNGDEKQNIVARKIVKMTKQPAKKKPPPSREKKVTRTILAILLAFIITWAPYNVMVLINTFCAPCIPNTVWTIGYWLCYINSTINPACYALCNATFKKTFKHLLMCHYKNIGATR
The assay is described as follows: Alphascreen Surefire phospho-ERK1/2 functional assay, M2. The protocol: as §1, §2

The target of assay [3] is T3, human muscarinic M3 receptor (Homo sapiens, UniProt P20309).
T3 construct: expressed in transfected cells
T3 sequence (P20309 whole entry): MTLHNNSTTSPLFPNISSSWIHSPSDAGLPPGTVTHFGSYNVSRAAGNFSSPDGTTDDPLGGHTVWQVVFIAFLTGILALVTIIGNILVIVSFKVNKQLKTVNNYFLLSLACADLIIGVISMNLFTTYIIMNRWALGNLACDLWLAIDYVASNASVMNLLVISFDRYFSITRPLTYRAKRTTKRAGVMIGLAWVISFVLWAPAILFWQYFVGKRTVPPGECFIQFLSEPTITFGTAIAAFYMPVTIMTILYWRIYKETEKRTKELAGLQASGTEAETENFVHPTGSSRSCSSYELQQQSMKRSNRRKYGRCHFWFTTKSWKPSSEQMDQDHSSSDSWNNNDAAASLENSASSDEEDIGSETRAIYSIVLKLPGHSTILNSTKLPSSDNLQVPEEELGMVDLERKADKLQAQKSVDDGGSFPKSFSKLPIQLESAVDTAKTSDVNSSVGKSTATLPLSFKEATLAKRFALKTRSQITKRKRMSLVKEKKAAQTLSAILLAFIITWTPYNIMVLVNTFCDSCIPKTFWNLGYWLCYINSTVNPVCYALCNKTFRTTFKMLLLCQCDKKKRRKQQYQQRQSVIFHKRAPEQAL
The assay is described as follows: Alphascreen Surefire phospho-ERK1/2 functional assay, M3. The method, then: as §1, §2

Assay [4] addresses T4, human muscarinic M4 receptor (Homo sapiens, UniProt P08173).
T4 construct: expressed in transfected cells
T4 sequence (P08173 1-479): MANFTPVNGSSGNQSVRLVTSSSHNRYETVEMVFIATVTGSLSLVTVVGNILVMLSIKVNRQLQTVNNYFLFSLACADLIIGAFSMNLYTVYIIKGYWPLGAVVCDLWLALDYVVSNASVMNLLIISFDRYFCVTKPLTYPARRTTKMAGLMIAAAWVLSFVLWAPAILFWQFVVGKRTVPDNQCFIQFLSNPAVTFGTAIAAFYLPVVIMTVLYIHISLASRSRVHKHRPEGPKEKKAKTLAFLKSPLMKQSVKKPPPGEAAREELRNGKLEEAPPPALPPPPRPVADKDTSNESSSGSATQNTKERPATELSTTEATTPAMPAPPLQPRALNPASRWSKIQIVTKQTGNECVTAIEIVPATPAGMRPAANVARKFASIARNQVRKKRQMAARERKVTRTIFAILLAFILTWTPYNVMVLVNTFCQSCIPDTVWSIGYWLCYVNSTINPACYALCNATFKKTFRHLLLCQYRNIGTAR
As to the kind of experiment: Alphascreen Surefire phospho-ERK1/2 functional assay, M4. The conditions noted are these: for EC50: phospho-ERK1/2, read-out: pEC50 M4 (converted); for Emax: CHO. The protocol: as §1, §2

[5] abbreviates: read-out: % Emax cf. ACh, M1, CHO cells stably expressing human M1, relative to ACh.
Setting [6] is: CHO cells stably expressing human M4.
Setting [7] is: read-out: % Emax cf. ACh, M4, CHO cells stably expressing human M4, relative to ACh.

Like-named read-outs stand apart in the source and are kept apart here.

For the compound `C#CCOC(=O)N1C2CCC1CC(N1CCC(C(=O)NC3(C)CCC3)CC1)C2` (single isomer, unassigned) [Example 2 - Isomer 1, prop-2-yn-1-yl 3-{4-[(1-methylcyclobutyl)carbamoyl]piperidin-1-yl}-8-azabicyclo[3.2.1]octane-8-carboxylate], the EC50 in assay [1] is 331 nM; in assay [2] (CHO cells stably expressing human M2, phospho-ERK1/2, read-out: pEC50 M2 (converted)), above 20000 nM; in assay [3] (CHO cells stably expressing human M3, phospho-ERK1/2, read-out: pEC50 M3 (converted)), above 20000 nM; in assay [4] (setting [6]) it was above 20000 nM. Moreover, the maximal response (Emax) (as a rule, the greatest response seen or fitted, relative to the assay's reference) in assay [1] (setting [5]) was 94%; in assay [2] (CHO, read-out: % Emax cf. ACh, M2), 14%; in assay [3] (CHO, read-out: % Emax cf. ACh, M3), 7%; in assay [4] (setting [7]), 11%.

Take `CCOC(=O)N1C2CCC1CC(N1CCC(F)(C(=O)NC3(C)CCC3)CC1)C2` (single isomer, unassigned) [Example 4 - Isomer 2, ethyl 3-{4-fluoro-4-[(1-methylcyclobutyl)carbamoyl]piperidin-1-yl}-8-azabicyclo[3.2.1]octane-8-carboxylate]: the EC50 in assay [1] was 145 nM; in assay [4] (setting [6]) it was 1070 nM. Moreover, the Emax was 111% in assay [1] (setting [5]) and 44% in assay [4] (setting [7]).

`CCOC(=O)N1CCC2(CC(N3CCC(C(=O)NC4(CF)CCC4)CC3)C2)C1` (single isomer, unassigned) [Example 23 - Isomer 2, ethyl 2-(4-{[1-(fluoromethyl)cyclobutyl]carbamoyl}piperidin-1-yl)-6-azaspiro[3.4]octane-6-carboxylate]: the EC50 in assay [1] was 155 nM; in assay [4] (setting [6]), 219 nM. Besides, the Emax in assay [1] (read-out: % Emax cf. ACh, M1) worked out at 90%; in assay [4] (read-out: % Emax cf. ACh, M4) it was 67%.

With `[2H]C([2H])([2H])C1(NC(=O)C2CCN(C3CC4(CCN(C(=O)OC([2H])([2H])C([2H])([2H])[2H])C4)C3)CC2)CCC1` (single isomer, unassigned) [Example 30 - Isomer 2, (1,1,2,2,2-pentadeutero)ethyl 2-(4-{[1-(1,1,1-trideuteromethyl)cyclobutyl]carbamoyl}piperidin-1-yl)-6-azaspiro[3.4]octane-6-carboxylate], the EC50 in assay [1] is 85.1 nM; in assay [4] (setting [6]), 195 nM. Moreover, the Emax in assay [1] (read-out: % Emax cf. ACh, M1) worked out at 105%; in assay [4] (read-out: % Emax cf. ACh, M4) it was 111%.

`[2H]C([2H])([2H])COC(=O)N1CCC2(CC(N3CCC(C(=O)NC4(C([2H])([2H])[2H])CCC4)CC3)C2)C1` (single isomer, unassigned) [Example 26 - Isomer 2, (2,2,2-trideutero)ethyl 2-(4-{[1-(1,1,1-trideuteromethyl)cyclobutyl]carbamoyl}piperidin-1-yl)-6-azaspiro[3.4]octane-6-carboxylate]: the EC50 is 81.3 nM in assay [1] and 257 nM in assay [4] (setting [6]). In addition, the Emax in assay [1] (read-out: % Emax cf. ACh, M1) turned out to be 108%; in assay [4] (read-out: % Emax cf. ACh, M4), 110%.

Regarding `CCOC(=O)N1CCC2(CC(N3CCC(C(=O)NC4(C)CCC4)CC3)C2)C1` (single isomer, unassigned) [Example 9 - Isomer 1, ethyl 2-{4-[(1-methylcyclobutyl)carbamoyl]piperidin-1-yl}-6-azaspiro[3.4]octane-6-carboxylate], the EC50 in assay [1] is 302 nM; in assay [4] (setting [6]), 589 nM. For the same compound, the Emax was found to be 102% in assay [1] (read-out: % Emax cf. ACh, M1) and 67% in assay [4] (read-out: % Emax cf. ACh, M4).

For the compound `CCOC(=O)N1C2CCC1CC(N1CCC(C(=O)NC3(C)CCC3)CC1)C2` (single isomer, unassigned) [Example 1 - Isomer 1, ethyl 3-{4-[(1-methylcyclobutyl)carbamoyl]piperidin-1-yl}-8-azabicyclo[3.2.1]octane-8-carboxylate], the EC50 is 324 nM in assay [1] and 1020 nM in assay [4] (setting [6]). Further, in assay [1] (setting [5]), the Emax came to 99%. In assay [4] (CHO cells stably expressing human M4, relative to ACh, listed as 1 - Isomer 1), the “% Emax cf. ACh, M4” value is given as 51%.

Regarding `[2H]C([2H])([2H])C1(NC(=O)C2CCN(C3CC4(CCN(C(=O)OCC)C4)C3)CC2)C([2H])([2H])C([2H])([2H])C1([2H])[2H]` (single isomer, unassigned) [Example 22 - Isomer 2, ethyl 2-(4-{[1-(1,1,1-trideuteromethyl)-2,2,3,3,4,4-hexadeuterocyclobutyl]carbamoyl}piperidin-1-yl)-6-azaspiro[3.4]octane-6-carboxylate], the figures for the EC50 in assay [1] and in assay [4] (setting [6]) were 79.4 nM and 209 nM, respectively. Moreover, the Emax in assay [1] (read-out: % Emax cf. ACh, M1) came out at 103%; in assay [4] (read-out: % Emax cf. ACh, M4), 67%.

With `[2H]C([2H])([2H])COC(=O)N1CCC2(CC(N3CCC(C(=O)NC4(CF)CCC4)CC3)C2)C1` (single isomer, unassigned) [Example 28 - Isomer 2, (2,2,2-trideutero)ethyl 2-(4-{[1-(fluoromethyl)cyclobutyl]carbamoyl}piperidin-1-yl)-6-azaspiro[3.4]octane-6-carboxylate], the results for the EC50 in assay [1] and in assay [4] (setting [6]) were 324 nM and 309 nM, respectively. Moreover, the Emax in assay [1] (read-out: % Emax cf. ACh, M1) turned out to be 120%; in assay [4] (read-out: % Emax cf. ACh, M4), 106%.

As to `CCOC(=O)N1CCC2(CC(N3CCC(C(=O)NCC4CCC4)CC3)C2)C1` (mixture of isomers) [Example 19 - mixture of diastereomers, ethyl 2-{4-[(cyclobutylmethyl)carbamoyl]piperidin-1-yl}-6-azaspiro[3.4]octane-6-carboxylate], the EC50 in assay [1] is 363 nM; in assay [4] (setting [6]), 1020 nM. Also, the Emax turned out to be 109% in assay [1] (read-out: % Emax cf. ACh, M1) and 42% in assay [4] (read-out: % Emax cf. ACh, M4).

Take `CCOC(=O)N1CCC2(CC(N3CCC(C(=O)NC(C)(C)CC)CC3)C2)C1` (mixture of isomers) [Example 16 - mixture of diastereomers, ethyl 2-{4-[(2-methylbutan-2-yl)carbamoyl]piperidin-1-yl}-6-azaspiro[3.4]octane-6-carboxylate]: the figures for the EC50 in assay [1] and in assay [4] (setting [6]) were 309 nM and 646 nM, respectively. Further, the Emax in assay [1] (read-out: % Emax cf. ACh, M1) was determined as 113%; in assay [4] (read-out: % Emax cf. ACh, M4), 56%.

As for `[2H]C([2H])([2H])C([2H])([2H])OC(=O)N1CCC2(CC(N3CCC(C(=O)NC4(C([2H])([2H])[2H])C([2H])([2H])C([2H])([2H])C4([2H])[2H])CC3)C2)C1` (mixture of isomers) [Example 31 - mixture of diastereomers, (1,1,2,2,2-pentadeutero)ethyl 2-(4-{[1-(1,1,1-trideuteromethyl)-2,2,3,3,4,4-hexadeuterocyclobutyl]carbamoyl}piperidin-1-yl)-6-azaspiro[3.4]octane-6-carboxylate], the EC50 in assay [1] was 407 nM; in assay [4] (setting [6]) it was 646 nM. Besides, the Emax in assay [1] (read-out: % Emax cf. ACh, M1) was found to be 110%; in assay [4] (read-out: % Emax cf. ACh, M4), 77%.

For the origin of these results see patent US9266857B2, “Bicyclic AZA compounds as muscarinic M1 receptor agonists” (Heptares Therapeutics Limited, priority 2012, dated 2016).
